Measured values taken from paper PMC6930600, “Synthesis of Aryl Propionamide Scaffold Containing a Pentafluorosulfanyl Moiety as SARMs” (Molecules, 2019).

Biological target: T1, androgen receptor (AR) (Homo sapiens, UniProt P10275)
T1 construct: AR expressed transiently from plasmid pSVAR0 (known as a human full-length AR expression vector)
T1 sequence (P10275 1-920): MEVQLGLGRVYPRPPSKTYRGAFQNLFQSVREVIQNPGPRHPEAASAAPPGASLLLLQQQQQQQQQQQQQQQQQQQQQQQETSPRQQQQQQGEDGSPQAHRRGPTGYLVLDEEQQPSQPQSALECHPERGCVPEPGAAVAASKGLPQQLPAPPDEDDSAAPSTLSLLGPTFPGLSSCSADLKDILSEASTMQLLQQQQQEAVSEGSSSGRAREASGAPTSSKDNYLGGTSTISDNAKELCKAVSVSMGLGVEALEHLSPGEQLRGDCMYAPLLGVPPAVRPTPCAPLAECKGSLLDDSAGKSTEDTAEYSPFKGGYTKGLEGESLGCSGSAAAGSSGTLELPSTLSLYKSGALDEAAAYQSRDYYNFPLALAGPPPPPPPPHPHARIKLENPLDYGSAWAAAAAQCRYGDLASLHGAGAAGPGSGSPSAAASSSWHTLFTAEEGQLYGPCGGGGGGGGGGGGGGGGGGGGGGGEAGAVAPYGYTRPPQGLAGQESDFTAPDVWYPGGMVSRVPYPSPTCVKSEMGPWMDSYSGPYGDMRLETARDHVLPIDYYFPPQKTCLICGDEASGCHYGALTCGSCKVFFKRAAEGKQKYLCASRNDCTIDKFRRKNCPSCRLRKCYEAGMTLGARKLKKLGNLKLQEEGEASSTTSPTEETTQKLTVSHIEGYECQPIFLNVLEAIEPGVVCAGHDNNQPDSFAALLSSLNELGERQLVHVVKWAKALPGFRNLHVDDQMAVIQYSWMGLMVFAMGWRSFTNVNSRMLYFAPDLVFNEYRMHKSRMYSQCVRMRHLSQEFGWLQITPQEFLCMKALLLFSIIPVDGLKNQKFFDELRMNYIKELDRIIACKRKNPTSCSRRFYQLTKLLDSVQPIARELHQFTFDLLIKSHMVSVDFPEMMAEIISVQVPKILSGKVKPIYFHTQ
Assay: MMTV-luciferase reporter gene agonist assay, transfected CV-1 cells
Format: cell-based
Conditions: agonist mode, […] h, […] °C
From the text: MMTV-luciferase reporter gene agonist assay, transfected CV-1 cells on androgen receptor (AR)

SMILES	Agonist activity in CV-1 / EC50 (unreliable)	Agonist activity in CV-1 / EC50 (unreliable (above top tested concentration […]))
C[C@](O)(COc1ccc(C#N)cc1)C(=O)Nc1cccc(S(F)(F)(F)(F)F)c1 [12a, (S)-3-(4-cyanophenoxy)-2-hydroxy-2-methyl-N-(3-(pentafluoro-l6-sulfanyl)phenyl)propanamide]	1508 ± 429.9 nM	–
C[C@](O)(COc1ccc(F)cc1)C(=O)Nc1cccc(S(F)(F)(F)(F)F)c1 [12b, (S)-3-(4-fluorophenoxy)-2-hydroxy-2-methyl-N-(3-(pentafluoro-l6-sulfanyl)phenyl)propanamide]	–	51213.5 ± 5806.1 nM
C[C@](O)(COc1ccc(Cl)cc1)C(=O)Nc1cccc(S(F)(F)(F)(F)F)c1 [12c, (S)-3-(4-chlorophenoxy)-2-hydroxy-2-methyl-N-(3-(pentafluoro-l6-sulfanyl)phenyl)propanamide]	1282 ± 79.2 nM	–
CCC(=O)c1ccc(OC[C@](C)(O)C(=O)Nc2cccc(S(F)(F)(F)(F)F)c2)cc1 [12f, (S)-2-hydroxy-2-methyl-N-(3-(pentafluoro-l6-sulfanyl)phenyl)-3-(4-propionylphenoxy)propanamide]	12733.5 ± 2144.7 nM	–
COc1ccc(OC[C@](C)(O)C(=O)Nc2ccc(S(F)(F)(F)(F)F)cc2)c(F)c1 [16g, (S)-3-(2-fluoro-4-methoxyphenoxy)-2-hydroxy-2-methyl-N-(4-(pentafluorosulfanyl)phenyl)propanamide]	2144.0 ± 694.4 nM	–
